Experimental data as given in US7109235B2, “Microtubule stabilizing compounds” (The Board of Trustees of the University Illinois, priority 2002, dated 2006).
≈ marks a conversion by molar mass, not a printed value. Like-named read-outs stand apart in the source and are kept apart here.

How the values were obtained:
tubulin = tubulin assembly assay / microtubule stabilization; format: biochemical
[1] = tested on: MCF-7 breast cancer cells; assay: cytotoxicity assay on MCF-7 breast cancer cells; format: cell-based, human
Procedure: The cytotoxic activity of trans-desoxylaulimalide (12a) was evaluated. An initial cytotoxicity study with desoxylaulimalide (12a) was conducted to compare compound (12a) to taxol and laulimalide for effects on the growth of human MCF-7 breast cancer cells. Cytotoxicity assays on MCF-7 were performed as described in P. Giannakakou et al., J. Biol. Chem., 272, 17118–17125 (1997). Consistent with its activity in a tubulin assembly assay, desoxylaulimalide (12a) was an inhibitor of cell growth. […] Thus, desoxylaulimalide (12a) is about 1/50 as active as laulimalide in the MCF-7 cells. This compares with the 340-fold lower activity in MDA-MB-435 breast cancer cells observed for isolaulimalide (9), which also lacks the epoxide moiety.

[2] = tested on: SKVLB-1 multidrug resistant cell line; conditions: multidrug resistant cell line SKVLB-1; read-out: IC50 against SKVLB-1; cited from earlier work
[3] = tested on: MDA-MB-435 breast cancer cells; conditions: cited from earlier work
KB cell line = conditions: cited from earlier work
[4] = tested on: P-glycoprotein-mediated MDR cell lines; conditions: cited from earlier work
[5] = tested on: P388, A549, HT29, and MEL28 cell lines; conditions: range over four cell lines; cited from earlier work
[6] = tested on: MDA-MB-435 and SK-OV-3 cell lines; conditions: drug-sensitive cell lines MDA-MB-435 and SK-OV-3; read-out: IC50, inhibition of cell proliferation; cited from earlier work
[7] = Homo sapiens, MCF7, read-out: IC50, inhibition of cell growth

## C=C1C[C@H](C)C[C@@H]2CC=C[C@@H](C/C=C\C(=O)O[C@H]([C@@H](O)/C=C/[C@@H]3CC(C)=CCO3)C/C=C/[C@@H](O)C1)O2 [12a, desoxylaulimalide]
tubulin
  effect on the tubulin assembly reaction: stimulates the tubulin assembly reaction
tubulin; compared with laulimalide (2)
  potency with respect to microtubule stabilization: potency similar to laulimalide (2)
[1]; [7]
  IC50: 360 nM
[1]; MCF-7 cells
  activity relative to laulimalide: about 1/50

## C=C1CC(C)C[C@@H]2CC=C[C@@H](C/C=C\C(=O)O[C@@H]3C[C@H](O[C@@H]3/C=C/[C@H]3CC(C)=CCO3)[C@H](O)C(O)C1)O2 (stereo partly drawn) [isolaulimalide]
[2]
  IC50: 2600 nM
[3]
  fold lower activity (compared with laulimalide): 340 fold
KB cell line; read-out: IC50 against KB cell line
  IC50: > 200 nM

## C=C1C[C@H](C)C[C@@H]2CC=C[C@@H](C/C=C\C(=O)O[C@H]([C@@H](O)/C=C/[C@@H]3CC(C)=CCO3)C[C@@H]3O[C@H]3[C@@H](O)C1)O2 [laulimalide]
[2]
  IC50: 1200 nM
[4]
  fold more potent than taxol: 100 fold
[5]
  IC50, cytotoxicity against P388, A549, HT29, and MEL28 cell lines: 0.01 to 0.05 µg/mL
KB cell line
  IC50, cytotoxicity against KB cell line: 0.015 µg/mL (≈ 0.0291 µM)
[1]; [7]
  IC50: 7 nM
[6]
  IC50: 5 to 12 nM

## CC(=O)O[C@H]1C(=O)[C@@]2(C)[C@H]([C@H](OC(=O)c3ccccc3)[C@]3(O)C[C@H](OC(=O)[C@H](O)[C@@H](NC(=O)c4ccccc4)c4ccccc4)C(C)=C1C3(C)C)[C@]1(OC(C)=O)CO[C@@H]1C[C@@H]2O [taxol]
[1]; MCF7, human MCF-7 breast cancer cells, read-out: IC50, inhibition of cell growth
  IC50: 2.4 nM
[6]
  IC50: 1000 to 2000 nM
